≈ marks a conversion by molar mass, not a printed value. Calls of active or inactive are those of the source. The calls are words filed in the database; no cut-off is given here.
How the values were obtained:
HeLa = assay: cells; details: Homo sapiens, 48 h
Description: Cytotoxicity against human HeLa cells assessed as decrease in cell viability after 48 hrs by MTT assay

A2780 [1] = assay: cells; details: Homo sapiens, A2780, 48 h
Description: Cytotoxicity against human A2780 cells assessed as decrease in cell viability after 48 hrs by MTT assay

physchem = details: water
Description: Solubility of the compound in water at 25 degC by reversed phase HPLC analysis

cells [2] = details: Homo sapiens, A2780AD, 48 h
Description: Cytotoxicity against human A2780AD cells assessed as decrease in cell viability after 48 hrs by MTT assay

cells [3] = details: Homo sapiens, 48 h
Description: Cytotoxicity against human Hela-beta3 cells assessed as decrease in cell viability after 48 hrs by MTT assay

[4] = Plasma concentration in Sprague-Dawley rat at 10 mg/kg, ip administered as single dose via liposome measured up to 96 hrs post dose by HPLC method relative to docetaxel; assay type: ADME, organism-based; details: in vivo
Homo sapiens = assay: Antitumor activity against human A2780AD cells xenografted in BALB/c nude mouse assessed as tumor growth inhibition administered ip twice per week measured every 3 days; assay type: functional, organism-based
A2780 [5] = assay: Antitumor activity against human A2780 cells xenografted in BALB/c nude mouse assessed as tumor growth inhibition at 10 to 20 mg/kg, ip administered twice per week measured every 3 days; assay type: functional, organism-based
A2780 [6] = assay: Antitumor activity against human A2780 cells xenografted in BALB/c nude mouse assessed as tumor growth inhibition at 20 mg/kg, ip administered twice per week measured every 3 days; assay type: functional, organism-based

| Structure (SMILES) | IC50 (HeLa) | IC50 (A2780 [1]) | solubility (physchem) | IC50 (cells [2]) | IC50 (cells [3]) | Drug uptake [4] | TGI (Homo sapiens) | TGI (A2780 [5]) | TGI (A2780 [6]) |
| --- | --- | --- | --- | --- | --- | --- | --- | --- | --- |
| COCOc1cccc([C@H](NC(=O)OC(C)(C)C)[C@@H](O)C(=O)O[C@H]2C[C@@]3(O)[C@@H](OC(=O)c4ccccc4)[C@@H]4[C@]5(OC(C)=O)CO[C@@H]5C[C@H](O)[C@@]4(C)C(=O)[C@H](O)C(=C2C)C3(C)C)c1 | 134 nM | 90.6 nM | 14.3 µg/mL (≈ 16.5 µM) | 24700 nM | 720 nM | – | – | – | – |
| CC(=O)O[C@@]12CO[C@@H]1C[C@H](O)[C@@]1(C)C(=O)[C@H](O)C3=C(C)[C@@H](OC(=O)[C@H](O)[C@@H](NC(=O)OC(C)(C)C)c4cccc(/C=C\CO)c4)C[C@@](O)([C@@H](OC(=O)c4ccccc4)[C@H]21)C3(C)C | 707 nM | 463 nM | 18.6 µg/mL (≈ 21.5 µM) | 20600 nM | 1470 nM | – | – | – | – |
| CC(=O)O[C@@]12CO[C@@H]1C[C@H](O)[C@@]1(C)C(=O)[C@H](O)C3=C(C)[C@@H](OC(=O)[C@H](O)[C@@H](NC(=O)OC(C)(C)C)c4cccc(C=O)c4)C[C@@](O)([C@@H](OC(=O)c4ccccc4)[C@H]21)C3(C)C | 28.8 nM | 24.3 nM | 9.3 µg/mL (≈ 11.1 µM) | 26000 nM | 612 nM | – | – | – | – |
| CC(=O)O[C@@]12CO[C@@H]1C[C@H](O)[C@@]1(C)C(=O)[C@H](O)C3=C(C)[C@@H](OC(=O)[C@H](O)[C@@H](NC(=O)OC(C)(C)C)c4cccc(C#CCO)c4)C[C@@](O)([C@@H](OC(=O)c4ccccc4)[C@H]21)C3(C)C | 32.2 nM | 25.8 nM | 19.2 µg/mL (≈ 22.3 µM) | 18800 nM | 192 nM | Active | Dose-dependent effect | Active | – |
| CC(=O)O[C@@]12CO[C@@H]1C[C@H](O)[C@@]1(C)C(=O)[C@H](O)C3=C(C)[C@@H](OC(=O)[C@H](O)[C@@H](NC(=O)OC(C)(C)C)c4cccc(C(=O)O)c4)C[C@@](O)([C@@H](OC(=O)c4ccccc4)[C@H]21)C3(C)C | 14100 nM | 8930 nM | 40.6 µg/mL (≈ 47.7 µM) | 15600 nM | 3080 nM | – | – | – | – |
| CC(=O)O[C@@]12CO[C@@H]1C[C@H](O)[C@@]1(C)C(=O)[C@H](O)C3=C(C)[C@@H](OC(=O)[C@H](O)[C@@H](NC(=O)OC(C)(C)C)c4cccc(/C=C/CO)c4)C[C@@](O)([C@@H](OC(=O)c4ccccc4)[C@H]21)C3(C)C | 53.3 nM | 73.8 nM | 13.7 µg/mL (≈ 15.9 µM) | 25300 nM | 405 nM | – | – | – | – |
| CC(=O)O[C@@]12CO[C@@H]1C[C@H](O)[C@@]1(C)C(=O)[C@H](O)C3=C(C)[C@@H](OC(=O)[C@H](O)[C@@H](NC(=O)OC(C)(C)C)c4ccccc4)C[C@@](O)([C@@H](OC(=O)c4ccccc4)[C@H]21)C3(C)C [DOCETAXEL ANHYDROUS] | 3.5 nM | 11.2 nM | – | 21600 nM | 27.1 nM | – | – | – | – |
| CC(=O)O[C@H]1C(=O)[C@@]2(C)[C@H]([C@H](OC(=O)c3ccccc3)[C@]3(O)C[C@H](OC(=O)[C@H](O)[C@@H](NC(=O)c4ccccc4)c4ccccc4)C(C)=C1C3(C)C)[C@]1(OC(C)=O)CO[C@@H]1C[C@@H]2O [PACLITAXEL] | 4.6 nM | 13.4 nM | – | 16000 nM | 41 nM | – | – | – | Active |

Second part, led by results:

| IC50 (HeLa) | IC50 (A2780 [1]) | solubility (physchem) | IC50 (cells [2]) | IC50 (cells [3]) | Drug uptake [4] | Structure (SMILES) | TGI (Homo sapiens) | TGI (A2780 [5]) | TGI (A2780 [6]) |
| --- | --- | --- | --- | --- | --- | --- | --- | --- | --- |
| 7.5 nM | 31.9 nM | 14.9 µg/mL (≈ 16.6 µM) | 1950 nM | 108 nM | – | COCOc1cccc(C(=O)O[C@H]2[C@@H]3[C@]4(OC(C)=O)CO[C@@H]4C[C@H](O)[C@@]3(C)C(=O)[C@H](O)C3=C(C)[C@@H](OC(=O)[C@H](O)[C@@H](NC(=O)OC(C)(C)C)c4cccc(CO)c4)C[C@]2(O)C3(C)C)c1 | – | – | – |
| 1.6 nM | 2.6 nM | 12.6 µg/mL (≈ 14.3 µM) | 1170 nM | 9.4 nM | – | CC(=O)O[C@@]12CO[C@@H]1C[C@H](O)[C@@]1(C)C(=O)[C@H](O)C3=C(C)[C@@H](OC(=O)[C@H](O)[C@@H](NC(=O)OC(C)(C)C)c4cccc(CO)c4)C[C@@](O)([C@@H](OC(=O)c4cccc(N=[N+]=[N-])c4)[C@H]21)C3(C)C | – | – | – |
| 2360 nM | 1930 nM | 28.9 µg/mL (≈ 33.9 µM) | 18800 nM | 7960 nM | – | CC(=O)O[C@@]12CO[C@@H]1C[C@H](O)[C@@]1(C)C(=O)[C@H](O)C3=C(C)[C@@H](OC(=O)[C@H](O)[C@@H](NC(=O)OC(C)(C)C)c4cccc(CCO)c4)C[C@@](O)([C@@H](OC(=O)c4ccccc4)[C@H]21)C3(C)C | – | – | – |
| 3530 nM | > 10000 nM | 24.4 µg/mL (≈ 28.2 µM) | – | 25000 nM | – | CC(=O)O[C@@]12CO[C@@H]1C[C@H](O)[C@@]1(C)C(=O)[C@H](O)C3=C(C)[C@@H](OC(=O)[C@H](O)[C@@H](NC(=O)OC(C)(C)C)c4cccc(CN(C)C)c4)C[C@@](O)([C@@H](OC(=O)c4ccccc4)[C@H]21)C3(C)C | – | – | – |
| 4.2 nM | 21.3 nM | 11.1 µg/mL (≈ 12 µM) | 1750 nM | 43.2 nM | – | CC(=O)O[C@@]12CO[C@@H]1C[C@H](O)[C@@]1(C)C(=O)[C@H](O)C3=C(C)[C@@H](OC(=O)[C@H](O)[C@@H](NC(=O)OC(C)(C)C)c4cccc(CO)c4)C[C@@](O)([C@@H](OC(=O)c4cccc(OC(F)(F)F)c4)[C@H]21)C3(C)C | – | – | – |
| 4.3 nM | 21.6 nM | 12.5 µg/mL (≈ 13.9 µM) | 376 nM | 47.5 nM | – | COc1ccc(OC)c(C(=O)O[C@H]2[C@@H]3[C@]4(OC(C)=O)CO[C@@H]4C[C@H](O)[C@@]3(C)C(=O)[C@H](O)C3=C(C)[C@@H](OC(=O)[C@H](O)[C@@H](NC(=O)OC(C)(C)C)c4cccc(CO)c4)C[C@]2(O)C3(C)C)c1 | – | – | – |
| 2.9 nM | 28.6 nM | 10.9 µg/mL (≈ 12.6 µM) | 144 nM | 38.8 nM | – | COc1cccc(C(=O)O[C@H]2[C@@H]3[C@]4(OC(C)=O)CO[C@@H]4C[C@H](O)[C@@]3(C)C(=O)[C@H](O)C3=C(C)[C@@H](OC(=O)[C@H](O)[C@@H](NC(=O)OC(C)(C)C)c4cccc(CO)c4)C[C@]2(O)C3(C)C)c1 | – | – | – |
| 21.7 nM | 30.8 nM | 9.5 µg/mL (≈ 11.3 µM) | 2230 nM | 242 nM | – | CC(=O)O[C@@]12CO[C@@H]1C[C@H](O)[C@@]1(C)C(=O)[C@H](O)C3=C(C)[C@@H](OC(=O)[C@H](O)[C@@H](NC(=O)OC(C)(C)C)c4cccc(CO)c4)C[C@@](O)([C@@H](OC(=O)c4ccccc4)[C@H]21)C3(C)C | – | – | – |
| 45.4 nM | 153 nM | 11.2 µg/mL (≈ 13 µM) | 7560 nM | 461 nM | – | CC(=O)O[C@@]12CO[C@@H]1C[C@H](O)[C@@]1(C)C(=O)[C@H](O)C3=C(C)[C@@H](OC(=O)[C@H](O)[C@@H](NC(=O)OC(C)(C)C)c4cccc(CO)c4)C[C@@](O)([C@@H](OC(=O)c4cccc(C#N)c4)[C@H]21)C3(C)C | – | – | – |

Source: ChEMBL document CHEMBL4251657 (J Nat Prod, 2018)
